Results taken from patent US7485659B2, “Anticancer compositions, and methods of making and using the same” (Faustus Forschungs CIE, Translational Cancer Research GmbH, priority 2001, dated 2009).

Columns and labels:
[1] = tested on: stem cells of human solid tumors and continuous human tumor cell lines; test: In vitro antiproliferative experiments on stem cells of human solid tumors (nude mice xenografts) and continuous human tumor cell lines; format: cell-based; settings: stem cells of human solid tumors bred as nude mice xenografts
[2] = tested on: human line of tumor cells SW480 (colon carcinoma); test: MTT assay, continuous 96 hour exposure, SW480; format: cell-based
Method: (§1) The cytotoxic effects of KP 1019 and combinations of KP 1339 and indazol in different molar ratios (administered as solution in the conventional cell culture medium MEM, supplemented with 10% fetal bovine serum, without the addition of organic solvents or dissolving agents) have been comparatively investigated on the human line of tumor cells SW480 (colon carcinoma) and CH1 (ovarian carcinoma) in the MTT assay under the application of a continuous 96 hour exposure to the active substance.

Water-solubility = format: physicochemical
[3] = tested on: human line of tumor cells CH1 (ovarian carcinoma); test: MTT assay, continuous 96 hour exposure, CH1; format: cell-based
Method: as §1

Structure (SMILES) | antiproliferative effectiveness in vitro compared with KP 1019 [1] | tumor inhibiting (cytotoxic) activity compared with KP 1019 ([2]; MEM + 10% fetal bovine serum) | water-solubility (in words) (Water-solubility) | water-solubility relative to KP 1019 (Water-solubility; compared with KP 1019) | tumor inhibiting (cytotoxic) activity compared with KP 1019 ([3]; MEM + 10% fetal bovine serum) | concentration at which a cytotoxic effect is exhibited [2] | concentration at which a cytotoxic effect is exhibited [3]
[Cl][Ru-]([Cl])([Cl])[Cl].[Na+].c1ccc2[nH]ncc2c1.c1ccc2[nH]ncc2c1 [KP 1339, sodium trans-[RuCl4(ind)2]] | clearly weaker antiproliferative effectiveness than KP 1019 | three to four times less effective than KP 1019 | easily water-soluble | more than thirty times higher than KP 1019 | three to four times less effective than KP 1019 |  | 
c1ccc2[nH]ncc2c1 [Indazol, indazol, reference compound] |  |  |  |  |  | > 1000 µM | > 1000 µM
